The target in assay [1] is T1, PPARγ receptors (Homo sapiens, UniProt P37231).
T1 sequence (P37231 1-505): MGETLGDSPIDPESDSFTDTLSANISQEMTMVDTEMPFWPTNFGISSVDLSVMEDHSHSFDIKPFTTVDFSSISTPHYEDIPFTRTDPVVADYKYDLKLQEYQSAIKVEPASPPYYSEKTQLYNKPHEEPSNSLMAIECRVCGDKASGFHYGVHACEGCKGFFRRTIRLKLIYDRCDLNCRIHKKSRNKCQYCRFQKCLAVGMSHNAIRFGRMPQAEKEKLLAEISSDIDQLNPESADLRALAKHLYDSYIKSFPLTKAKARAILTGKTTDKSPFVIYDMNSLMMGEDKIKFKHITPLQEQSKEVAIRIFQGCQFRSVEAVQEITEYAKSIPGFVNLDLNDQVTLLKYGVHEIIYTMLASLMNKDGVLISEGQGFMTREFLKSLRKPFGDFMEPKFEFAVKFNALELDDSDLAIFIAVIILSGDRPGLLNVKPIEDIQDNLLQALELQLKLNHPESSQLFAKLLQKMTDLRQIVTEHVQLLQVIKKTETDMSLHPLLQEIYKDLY
The assay is described as follows: PPARγ transactivation test. Type of assay: cell-based. More on the design: expressed in transfected cells. The following applies: concentration of 1 μM, relative to SB 219994 = 100%. From the text: (§1) The agonist activity of the compounds according to the invention towards PPARγ receptors may be evaluated by binding tests and transactivation tests.

In another assay the target is T2, PPARα receptors (Homo sapiens, UniProt Q07869).
T2 construct: expressed in transfected cells
T2 sequence (Q07869 1-468): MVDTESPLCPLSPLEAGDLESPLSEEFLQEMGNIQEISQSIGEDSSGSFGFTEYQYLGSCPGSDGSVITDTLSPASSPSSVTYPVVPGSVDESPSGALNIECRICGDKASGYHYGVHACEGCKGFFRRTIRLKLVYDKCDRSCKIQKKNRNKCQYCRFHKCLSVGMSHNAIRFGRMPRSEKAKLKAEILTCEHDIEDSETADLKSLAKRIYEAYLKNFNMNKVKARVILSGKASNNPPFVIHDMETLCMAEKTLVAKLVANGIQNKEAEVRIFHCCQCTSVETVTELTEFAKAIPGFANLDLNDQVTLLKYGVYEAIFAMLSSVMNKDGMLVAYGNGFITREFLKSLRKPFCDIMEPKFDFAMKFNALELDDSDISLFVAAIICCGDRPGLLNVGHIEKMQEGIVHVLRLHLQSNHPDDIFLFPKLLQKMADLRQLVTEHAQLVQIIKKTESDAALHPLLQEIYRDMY
The assay is described as follows: PPARα transactivation test. Particulars: concentration of 1 μM, relative to Wy 14643 = 100%. The assay is classed as cell-based.
Source text: [Worded in the source for another target; this target is reported under the same test.] as §1

Assay [2] addresses T1, PPARγ receptors. As to the kind of experiment: PPARγ binding test, competition with tritiated BRL 49,653. Further details: made in house; host or cells: Sf9 insect cells (recombinant baculovirus). The following applies: hydroxyapatite gel, receptor from Sf9 insect cells, read-out: Binding of PPAR-γ Kd. The method, then:
The technique of adsorption on hydroxyapatite gel was used to separate the receptor-bound ligand from the free ligand. The human PPARγ receptor was prepared from Sf9 insect cells infected with a recombinant baculovirus. The results are expressed as a Kd value (nM) which represents the equilibrium dissociation constant obtained for each compound.
as §1

For orientation: pKd means −log10 of the Kd, conventionally taken in molar units.

pKd: −log10 of the molar value. Marks after values point to notes of the source that are not given here.

On to `CN(Cc1ccccc1)C(=O)c1cccc(-c2ccc(CC3SC(=O)NC3=O)cc2)c1` (stereo not shown) [Example 30, N-Benzyl-N-methyl-4′-(2,4-dioxothiazolidin-5-ylmethyl)biphenyl-3-carboxamide], for which the activation at 1 µM is 80.3% at PPARγ receptors [1] and 8.9% at PPARα receptors.
On to `CN(Cc1cccc(-c2ccc(CC3SC(=O)NC3=O)cc2)c1)c1ccccn1` (stereo not shown) [Example 2, 5-{3′-[(Methylpyrid-2-ylamino)methyl]biphenyl-4-ylmethyl}thiazolidine-2,4-dione], for which the pKd on PPARγ receptors [2] was 6.58. The activation at 1 µM at PPARγ receptors [1] came out at 42.9%; on PPARα receptors, 8.2%.
Consider `CN(Cc1cccc(-c2ccc(CC3SC(=O)NC3=O)cc2)c1)C(=O)CCc1ccccc1` (stereo not shown) [Example 24, N-[4′-(2,4-Dioxothiazolidin-5-ylmethyl)biphenyl-3-ylmethyl]-N-methyl-3-phenylpropionamide], for which the pKd on PPARγ receptors [2] is 7.14. The activation at 1 µM on PPARγ receptors [1] was found to be 95%; at PPARα receptors, 8.7%.
In the case of `CN(CCOc1ccc(C[C@H](OCC(F)(F)F)C(=O)O)cc1)c1nc2ccccc2o1` [Reference 2: SB 219994, reference compound], at PPARγ receptors [2], the pKd was 9.30. In addition, the “% of activation of PPARγ” value on PPARγ receptors [1] stood at 100%.
Regarding `CCCCCCC(=O)N(C)Cc1cccc(-c2ccc(CC3SC(=O)NC3=O)cc2)c1` (stereo not shown) [Example 35, N-[4′-(2,4-Dioxothiazolidin-5-ylmethyl)biphenyl-3-ylmethyl]-N-methylheptanamide], the activation at 1 µM on PPARγ receptors [1] stood at 56%; at PPARα receptors it was 11%.
The matching figures for `CCCCCCCCCC(=O)N(C)Cc1cccc(-c2ccc(CC3SC(=O)NC3=O)cc2)c1` (stereo not shown) [Example 32, N-[4′-(2,4-Dioxothiazolidin-5-ylmethyl)biphenyl-3-ylmethyl]-N-methyldecanamide]: 74.9% and 0%.
The matching figures for `CCCN(Cc1cccc(-c2ccc(C=C3SC(=O)NC3=O)cc2)c1)C(=O)c1ccccc1` [Example 26, N-[4′-(2,4-Dioxothiazolidin-5-ylidenemethyl)-biphenyl-3-ylmethyl]-N-propylbenzamide]: 88.6% and 2.1%.
In the same order, the values of `CCOc1ccc(C(=O)N(C)Cc2cccc(-c3ccc(CC4SC(=O)NC4=O)cc3)c2)cc1OCC` (stereo not shown) [Example 28, N-[4′-(2,4-Dioxothiazolidin-5-ylmethyl)biphenyl-3-ylmethyl]-3,4-diethoxy-N-methylbenzamide] are 79.8% and 1.1%.
Take `CCO[C@@H](Cc1ccc(-c2cccc(CN(C)C(=O)c3ccccc3)c2)cc1)C(=O)O` [Example 13, (S)-2-Ethoxy-3-(3′-{[methyl-(1-phenylmethanoyl)-amino]methyl}biphenyl-4-yl)propionic acid]: the pKd on PPARγ receptors [2] was 7.62. For the same compound, the activation at 1 µM on PPARγ receptors [1] was found to be 70.2%; on PPARα receptors it was 0%.
As for `Cc1cccc(Nc2cc(Cl)nc(SCC(=O)O)n2)c1C` [Reference 1: Wy 14643, reference compound], the “% of activation of PPARα” value at PPARα receptors is listed as 100* %.
Turning to `CN(Cc1cccc(-c2ccc(CC3SC(=O)NC3=O)cc2)c1)C(=O)OCC1c2ccccc2-c2ccccc21` (stereo not shown) [Example 21, 9H-Fluoren-9-ylmethyl [4′-(2,4-dioxothiazolidin-5-ylmethyl)biphenyl-3-ylmethyl]methylcarbamate], on PPARγ receptors [2], the pKd was 6.72. Also, the results for the activation at 1 µM on PPARγ receptors [1] and on PPARα receptors were 90% and 14.9%, respectively.
As for `CN(Cc1cccc(-c2ccc(CC3SC(=O)NC3=O)cc2)c1)C(=O)OC(C)(C)C` (stereo not shown) [Example 11, tert-Butyl [4′-(2,4-dioxothiazolidin-5-ylmethyl)biphenyl-3-ylmethyl]methylcarbamate], the pKd at PPARγ receptors [2] is 6.54. Also, the values for the activation at 1 µM at PPARγ receptors [1] and at PPARα receptors were 74.5% and 2.4%, respectively.
For `CCCCCCCC(=O)N(C)Cc1cccc(-c2ccc(CC3SC(=O)NC3=O)cc2)c1` (stereo not shown) [Example 34, N-[4′-(2,4-Dioxothiazolidin-5-ylmethyl)biphenyl-3-ylmethyl]-N-methyloctanamide], the pKd at PPARγ receptors [2] is 8.70. Also, the activation at 1 µM at PPARγ receptors [1] amounted to 102%; at PPARα receptors, 17.6%.
In the same order, the values of `CN(Cc1cccc(-c2ccc(CC3SC(=O)NC3=O)cc2)c1)C(=O)Nc1ccccc1` (stereo not shown) [Example 10, 1-[4′-(2,4-Dioxothiazolidin-5-ylmethyl)biphenyl-3-ylmethyl]-1-methyl-3-phenylurea] are 6.10, 22.1% and 0%.
On to `CCCCCCCCC(=O)N(C)Cc1cccc(-c2ccc(CC3SC(=O)NC3=O)cc2)c1` (stereo not shown) [Example 12, N-[4′[2,4-dioxothiazolidin-5-ylmethyl)biphenyl-3-ylmethyl]-N-methylnonanamide], for which, at PPARγ receptors [2], the negative-log Kd (pKd) is 8.15. The activation at 1 µM on PPARγ receptors [1] came to 60.4%; at PPARα receptors, 0%.
The matching figures for `CN(Cc1cccc(-c2ccc(CC3SC(=O)NC3=O)cc2)c1)C(=O)C(C)(C)C` (stereo not shown) [Example 22, N-[4′-(2,4-Dioxothiazolidin-5-ylmethyl)biphenyl-3-ylmethyl]-2,2,N-trimethylpropionamide]: 7.12, 95.3% and 7.5%.
In the same order, the values of `CN(Cc1cccc(-c2ccc(CC3SC(=O)NC3=O)cc2)c1)C(=O)c1ccccc1` (stereo not shown) [Example 1, N-[4′-(2,4-Dioxothiazolidin-5-ylmethyl)biphenyl-3-ylmethyl]-N-methylbenzamide] are 7.26, 102% and 8.2%.

The values above are taken from US6927228B2, “Biaromatic compound activators of PPARγ-type receptors” (Galderma Research & Development, S.N.C., priority 2000, dated 2005).
